The target of one assay is T1, TRPV4 (MC3T3-E1 cells) (Mus musculus, UniProt Q9EPK8).
T1 construct: native full-length channel in mouse osteoblastic MC3T3-E1 cells (Riken Cell Bank); identity supported by siTRPV4 knockdown
The experiment in a line: Fura-2 Ca2+ imaging, MC3T3-E1 cells, Hill fit. The format is cell-based. As to conditions: agonist; native cells; pH 7.4, 2.2 mM Ca2+, n = 7.

Assay [1] has as its target T2, mouse PIEZO1 (mPIEZO1; HEK-mPiezo1) (Mus musculus, UniProt E2JF22).
T2 construct: mouse Piezo1 (Addgene) in pcDNA3.1 / pIRES2-AcGFP1, transiently transfected in HEK 293 cells; low endogenous human PIEZO1 in host
The experiment in a line: Fura-2 Ca2+ imaging, HEK cells, Hill fit. In kind it is cell-based.

T1 sequence (Q9EPK8 whole entry): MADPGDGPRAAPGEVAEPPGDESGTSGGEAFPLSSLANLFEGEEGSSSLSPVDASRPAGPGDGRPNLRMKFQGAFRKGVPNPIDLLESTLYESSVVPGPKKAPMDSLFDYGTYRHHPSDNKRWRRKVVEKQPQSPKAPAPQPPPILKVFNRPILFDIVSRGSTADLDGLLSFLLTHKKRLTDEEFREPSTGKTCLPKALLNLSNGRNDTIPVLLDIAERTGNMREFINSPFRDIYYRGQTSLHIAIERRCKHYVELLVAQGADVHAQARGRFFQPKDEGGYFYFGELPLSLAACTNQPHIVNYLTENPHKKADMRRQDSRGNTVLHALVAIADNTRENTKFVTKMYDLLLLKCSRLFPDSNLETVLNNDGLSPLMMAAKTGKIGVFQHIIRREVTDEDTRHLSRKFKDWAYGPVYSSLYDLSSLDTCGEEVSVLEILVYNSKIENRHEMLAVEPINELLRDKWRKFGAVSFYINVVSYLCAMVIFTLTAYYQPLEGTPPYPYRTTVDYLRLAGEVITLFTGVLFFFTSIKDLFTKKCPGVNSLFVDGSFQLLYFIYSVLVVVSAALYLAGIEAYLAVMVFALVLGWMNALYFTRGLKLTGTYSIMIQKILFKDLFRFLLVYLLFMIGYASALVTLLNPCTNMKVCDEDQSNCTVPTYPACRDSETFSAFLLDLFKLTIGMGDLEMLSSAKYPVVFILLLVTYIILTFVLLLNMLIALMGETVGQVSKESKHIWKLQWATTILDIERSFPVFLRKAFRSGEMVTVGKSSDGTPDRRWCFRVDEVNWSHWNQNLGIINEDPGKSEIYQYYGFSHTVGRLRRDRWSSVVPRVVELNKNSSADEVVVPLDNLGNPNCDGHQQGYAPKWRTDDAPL
T2 sequence (E2JF22 whole entry): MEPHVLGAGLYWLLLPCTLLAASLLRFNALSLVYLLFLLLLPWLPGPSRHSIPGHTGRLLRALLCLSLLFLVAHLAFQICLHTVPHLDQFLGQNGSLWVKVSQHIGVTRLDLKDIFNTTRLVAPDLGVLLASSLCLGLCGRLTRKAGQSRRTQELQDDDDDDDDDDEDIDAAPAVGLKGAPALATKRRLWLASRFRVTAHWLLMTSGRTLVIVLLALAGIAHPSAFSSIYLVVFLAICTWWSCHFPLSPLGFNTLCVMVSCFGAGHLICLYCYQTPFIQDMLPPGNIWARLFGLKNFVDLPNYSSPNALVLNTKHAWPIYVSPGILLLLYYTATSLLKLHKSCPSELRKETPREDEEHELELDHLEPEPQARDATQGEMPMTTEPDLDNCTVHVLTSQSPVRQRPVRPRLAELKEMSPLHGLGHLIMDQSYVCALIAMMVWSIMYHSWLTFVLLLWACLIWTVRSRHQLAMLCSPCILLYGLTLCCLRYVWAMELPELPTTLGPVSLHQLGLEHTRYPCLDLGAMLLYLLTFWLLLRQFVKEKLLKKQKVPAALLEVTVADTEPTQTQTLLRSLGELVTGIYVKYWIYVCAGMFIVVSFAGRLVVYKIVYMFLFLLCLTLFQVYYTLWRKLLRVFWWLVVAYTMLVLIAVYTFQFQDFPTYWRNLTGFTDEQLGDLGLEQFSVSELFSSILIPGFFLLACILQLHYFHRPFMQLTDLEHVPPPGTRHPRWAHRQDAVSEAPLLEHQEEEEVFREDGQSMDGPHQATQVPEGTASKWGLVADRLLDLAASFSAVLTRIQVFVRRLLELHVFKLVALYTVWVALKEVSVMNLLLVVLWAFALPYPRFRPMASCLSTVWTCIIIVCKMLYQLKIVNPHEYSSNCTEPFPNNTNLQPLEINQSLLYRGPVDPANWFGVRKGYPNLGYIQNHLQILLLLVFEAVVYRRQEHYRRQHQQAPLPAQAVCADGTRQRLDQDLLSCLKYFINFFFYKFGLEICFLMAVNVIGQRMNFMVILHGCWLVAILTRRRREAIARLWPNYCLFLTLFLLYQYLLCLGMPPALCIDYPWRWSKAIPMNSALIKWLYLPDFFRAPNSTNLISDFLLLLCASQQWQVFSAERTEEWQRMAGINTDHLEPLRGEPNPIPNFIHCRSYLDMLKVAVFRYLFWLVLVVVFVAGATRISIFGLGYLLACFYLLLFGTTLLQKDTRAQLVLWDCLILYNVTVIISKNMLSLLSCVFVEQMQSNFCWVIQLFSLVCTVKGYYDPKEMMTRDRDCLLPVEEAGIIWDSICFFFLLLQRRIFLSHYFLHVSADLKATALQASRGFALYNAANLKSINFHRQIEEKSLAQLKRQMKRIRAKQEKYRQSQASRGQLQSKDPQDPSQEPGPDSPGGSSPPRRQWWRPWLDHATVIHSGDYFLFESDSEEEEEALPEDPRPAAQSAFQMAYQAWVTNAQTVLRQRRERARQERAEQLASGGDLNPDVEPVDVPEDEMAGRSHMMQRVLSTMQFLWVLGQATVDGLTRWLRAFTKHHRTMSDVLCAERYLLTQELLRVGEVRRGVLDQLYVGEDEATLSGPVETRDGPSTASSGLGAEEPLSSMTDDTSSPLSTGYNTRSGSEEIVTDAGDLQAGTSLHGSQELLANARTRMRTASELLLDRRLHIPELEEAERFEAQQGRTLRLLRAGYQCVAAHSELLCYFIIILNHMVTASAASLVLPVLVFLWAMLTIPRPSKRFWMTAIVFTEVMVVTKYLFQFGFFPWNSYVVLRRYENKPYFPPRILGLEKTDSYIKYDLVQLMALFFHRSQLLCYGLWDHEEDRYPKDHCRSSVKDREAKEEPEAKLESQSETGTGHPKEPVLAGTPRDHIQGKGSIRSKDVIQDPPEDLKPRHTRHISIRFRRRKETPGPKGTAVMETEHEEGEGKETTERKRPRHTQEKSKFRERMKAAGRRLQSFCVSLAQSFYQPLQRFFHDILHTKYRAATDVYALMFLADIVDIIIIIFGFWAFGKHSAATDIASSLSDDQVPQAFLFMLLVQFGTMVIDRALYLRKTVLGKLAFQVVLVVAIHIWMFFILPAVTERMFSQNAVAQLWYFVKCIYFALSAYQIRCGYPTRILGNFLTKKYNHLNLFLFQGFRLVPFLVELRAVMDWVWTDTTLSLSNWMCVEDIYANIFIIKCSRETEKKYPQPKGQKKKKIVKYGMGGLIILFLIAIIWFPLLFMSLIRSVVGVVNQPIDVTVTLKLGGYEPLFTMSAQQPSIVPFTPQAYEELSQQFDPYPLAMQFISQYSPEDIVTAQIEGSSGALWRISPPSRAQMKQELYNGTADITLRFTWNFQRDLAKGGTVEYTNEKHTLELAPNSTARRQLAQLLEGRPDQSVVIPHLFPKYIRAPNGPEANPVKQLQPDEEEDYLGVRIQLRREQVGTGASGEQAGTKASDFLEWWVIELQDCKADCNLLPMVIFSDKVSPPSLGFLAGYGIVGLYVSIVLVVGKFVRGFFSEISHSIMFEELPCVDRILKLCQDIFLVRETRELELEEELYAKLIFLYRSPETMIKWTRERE

By EC50 is commonly meant the concentration giving half of the maximal effect. Read a low EC50 as higher potency in that assay. At TRPV4 (MC3T3-E1 cells), `CC(C)C[C@H](NC(=O)c1cc2ccccc2s1)C(=O)N1CCN(C(=O)[C@H](CO)NS(=O)(=O)c2ccc(Cl)cc2Cl)CC1` [GSK1016790A] displayed an EC50 of 2.25 ± 0.45 nM.
With `Clc1cccc(Cl)c1CSc1nnc(-c2cnccn2)s1` [Yoda1, 2-[5-[[(2,6-Dichlorophenyl)methyl]thio]-1,3,4-thiadiazol-2-yl]-pyrazine], in assay [1], the response was half-maximal at 380 ± 70 nM (EC50).

Values taken from article PMC6801562, “PIEZO1 and TRPV4, which Are Distinct Mechano-Sensors in the Osteoblastic MC3T3-E1 Cells, Modify Cell-Proliferation” (International Journal of Molecular Sciences, 2019).
